Where a name gives a salt, the structure may show the parent alone. Read-outs that look alike come from different tables or passages of the source.
Experiments:
Human JAK1 = target: T1, Human JAK1 (Homo sapiens, UniProt P23458); assay: In-vitro kinase inhibition test, JAK1; format: biochemical; conditions: for inhibition at 1 µM: compound at 1 uM, read-out: JAK1 kinase-phosphorylation inhibitory level (% inhibition); for JAK1/JAK2: ratio of % inhibition of JAK1 to JAK2 at 1 uM
T1 construct: purchased Millipore, Germany

Human JAK2 = target: T2, Human JAK2 (Homo sapiens, UniProt O60674); assay: In-vitro kinase inhibition test, JAK2; format: biochemical; conditions: compound at 1 uM; read-out: JAK2 kinase-phosphorylation inhibitory level (% inhibition)
T2 construct: purchased Millipore, Germany
Method: (§1) Human-derived JAK1, JAK2, JAK3 and TYK2 (Millipore, Germany) were used as kinases. Each kinase was diluted with an appropriate buffer as described below, and then mixed with reaction reagents.
(§2) 3-morpholinopropane-1-sulfonic acid (MOPS) and EDTA were dissolved in deionized water at a concentration of 20 mM and 1 mM, respectively, and then 100 μL of β-mercaptoethanol, 10 μL of Brij-35™, 5 mL of glycerol, and 100 mg of bovine serum albumin (BSA), each per 100 mL of the solution, were added to the solution, thereby preparing a dilution buffer for JAK2, JAK3, and TYK2.
(§3) Each compound was dissolved in a 100%-DMSO solution at a concentration of about 50 μM. This prepared solution was reacted with reaction reagents in each well of a 96-well plate until a final concentration of the compound reached 1 μM. A detailed experimental method for each kinase is as follows.
(§4) After reaction for about 40 minutes at room temperature, the reaction was stopped by adding 5 uL of a 3% (v/v) phosphoric acid solution.
(§5) The inhibitory levels (% inhibition) represent a percentage of reduction in phosphorylation activity in each test group with respect to the phosphorylation activity of a corresponding kinase in a negative control group lacking any of the compounds synthesized in the examples. % inhibition=[(Scintillation value of Test compound non-treatment group−Scintillation value of Test compound treatment group)/(Scintillation value of Test compound non-treatment group)]×100

Human JAK3 = target: T3, Human JAK3 (Homo sapiens, UniProt P52333); assay: In-vitro kinase inhibition test, JAK3; format: biochemical; conditions: compound at 1 uM; read-out: JAK3 kinase-phosphorylation inhibitory level (% inhibition)
T3 construct: purchased Millipore, Germany
T3 sequence (P52333 1-1124): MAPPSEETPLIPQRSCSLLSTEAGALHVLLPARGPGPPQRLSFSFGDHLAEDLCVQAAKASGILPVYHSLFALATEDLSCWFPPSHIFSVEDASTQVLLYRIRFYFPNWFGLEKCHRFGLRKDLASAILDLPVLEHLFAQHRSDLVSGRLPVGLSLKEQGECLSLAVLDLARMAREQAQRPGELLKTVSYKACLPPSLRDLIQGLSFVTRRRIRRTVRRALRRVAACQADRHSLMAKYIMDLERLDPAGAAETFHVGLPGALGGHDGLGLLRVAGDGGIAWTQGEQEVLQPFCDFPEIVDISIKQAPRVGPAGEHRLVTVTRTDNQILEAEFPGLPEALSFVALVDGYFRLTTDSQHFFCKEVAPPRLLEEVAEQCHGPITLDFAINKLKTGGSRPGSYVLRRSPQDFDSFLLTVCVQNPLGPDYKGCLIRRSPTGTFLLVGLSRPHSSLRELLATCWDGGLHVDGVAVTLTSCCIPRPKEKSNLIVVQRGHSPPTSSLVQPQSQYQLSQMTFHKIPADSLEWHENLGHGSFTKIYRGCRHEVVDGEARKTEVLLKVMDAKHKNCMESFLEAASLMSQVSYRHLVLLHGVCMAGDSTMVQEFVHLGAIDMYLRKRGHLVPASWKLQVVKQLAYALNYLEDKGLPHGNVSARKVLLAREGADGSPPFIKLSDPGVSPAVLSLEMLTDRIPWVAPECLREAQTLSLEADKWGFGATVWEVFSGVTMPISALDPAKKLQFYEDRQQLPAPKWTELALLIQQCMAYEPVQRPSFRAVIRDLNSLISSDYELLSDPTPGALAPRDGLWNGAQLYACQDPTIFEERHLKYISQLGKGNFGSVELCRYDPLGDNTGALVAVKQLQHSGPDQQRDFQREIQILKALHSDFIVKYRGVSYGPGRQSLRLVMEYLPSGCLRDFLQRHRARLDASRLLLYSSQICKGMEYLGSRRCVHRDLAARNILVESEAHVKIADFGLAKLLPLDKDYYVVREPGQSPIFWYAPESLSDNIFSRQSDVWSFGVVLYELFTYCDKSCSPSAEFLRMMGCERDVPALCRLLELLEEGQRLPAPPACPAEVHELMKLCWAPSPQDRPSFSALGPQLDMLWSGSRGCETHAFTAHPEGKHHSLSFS

Human TYK2 = target: T4, Human TYK2 (Homo sapiens, UniProt P29597); assay: In-vitro kinase inhibition test, TYK2; format: biochemical; conditions: read-out: TYK2 kinase-phosphorylation inhibitory level (% inhibition)
T4 construct: purchased Millipore, Germany
Method: as §1, §2, §3, §4, §5

[1] = Pharmacokinetic test, oral or intravenous administration; format: in vivo; conditions: mouse, blood, 20 mg/kg, mice
Method: A dose of the compound was about 20 mg/kg, which was orally or intraveneously administered one time, followed by blood collection from the jugular veins of three mice at each of blood sampling intervals, i.e., 0, 0.25 (15 min), 0.5 (30 min), 1, 2, 4, 6, 12, and 24 hours from the administration, and measuring a drug concentration.

[2] = comparative drug (EMA), cited from earlier work

T4 sequence (P29597 whole entry): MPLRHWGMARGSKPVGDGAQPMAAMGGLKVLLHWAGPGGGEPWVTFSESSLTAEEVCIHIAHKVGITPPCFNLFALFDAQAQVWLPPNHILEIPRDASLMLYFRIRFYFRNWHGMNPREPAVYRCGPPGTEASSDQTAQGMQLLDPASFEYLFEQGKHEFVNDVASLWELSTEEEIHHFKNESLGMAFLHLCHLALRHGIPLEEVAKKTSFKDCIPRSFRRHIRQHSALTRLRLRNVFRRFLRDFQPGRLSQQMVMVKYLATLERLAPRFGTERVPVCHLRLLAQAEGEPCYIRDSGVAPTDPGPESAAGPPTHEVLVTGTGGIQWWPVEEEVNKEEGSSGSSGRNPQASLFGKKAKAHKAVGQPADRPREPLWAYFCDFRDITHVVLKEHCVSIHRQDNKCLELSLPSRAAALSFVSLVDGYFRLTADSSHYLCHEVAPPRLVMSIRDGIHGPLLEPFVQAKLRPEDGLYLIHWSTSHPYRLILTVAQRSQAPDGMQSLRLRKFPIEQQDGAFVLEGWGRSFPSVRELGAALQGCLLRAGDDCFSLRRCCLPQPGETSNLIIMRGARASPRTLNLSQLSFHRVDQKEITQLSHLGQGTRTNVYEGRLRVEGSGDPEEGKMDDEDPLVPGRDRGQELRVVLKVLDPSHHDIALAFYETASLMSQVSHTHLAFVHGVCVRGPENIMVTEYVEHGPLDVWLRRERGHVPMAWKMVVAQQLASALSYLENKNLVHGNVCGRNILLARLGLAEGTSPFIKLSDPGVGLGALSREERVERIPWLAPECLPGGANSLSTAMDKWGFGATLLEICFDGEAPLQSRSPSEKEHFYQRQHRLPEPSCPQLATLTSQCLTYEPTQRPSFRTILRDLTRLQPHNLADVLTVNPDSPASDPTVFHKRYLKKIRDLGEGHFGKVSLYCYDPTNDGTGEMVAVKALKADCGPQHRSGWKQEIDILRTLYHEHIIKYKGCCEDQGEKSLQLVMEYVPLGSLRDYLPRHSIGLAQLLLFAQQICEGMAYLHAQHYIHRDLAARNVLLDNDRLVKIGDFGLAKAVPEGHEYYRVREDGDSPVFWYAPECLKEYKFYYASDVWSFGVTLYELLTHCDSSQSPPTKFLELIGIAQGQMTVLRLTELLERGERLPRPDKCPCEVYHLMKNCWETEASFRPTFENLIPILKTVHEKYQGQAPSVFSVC
T2 sequence (O60674 whole entry): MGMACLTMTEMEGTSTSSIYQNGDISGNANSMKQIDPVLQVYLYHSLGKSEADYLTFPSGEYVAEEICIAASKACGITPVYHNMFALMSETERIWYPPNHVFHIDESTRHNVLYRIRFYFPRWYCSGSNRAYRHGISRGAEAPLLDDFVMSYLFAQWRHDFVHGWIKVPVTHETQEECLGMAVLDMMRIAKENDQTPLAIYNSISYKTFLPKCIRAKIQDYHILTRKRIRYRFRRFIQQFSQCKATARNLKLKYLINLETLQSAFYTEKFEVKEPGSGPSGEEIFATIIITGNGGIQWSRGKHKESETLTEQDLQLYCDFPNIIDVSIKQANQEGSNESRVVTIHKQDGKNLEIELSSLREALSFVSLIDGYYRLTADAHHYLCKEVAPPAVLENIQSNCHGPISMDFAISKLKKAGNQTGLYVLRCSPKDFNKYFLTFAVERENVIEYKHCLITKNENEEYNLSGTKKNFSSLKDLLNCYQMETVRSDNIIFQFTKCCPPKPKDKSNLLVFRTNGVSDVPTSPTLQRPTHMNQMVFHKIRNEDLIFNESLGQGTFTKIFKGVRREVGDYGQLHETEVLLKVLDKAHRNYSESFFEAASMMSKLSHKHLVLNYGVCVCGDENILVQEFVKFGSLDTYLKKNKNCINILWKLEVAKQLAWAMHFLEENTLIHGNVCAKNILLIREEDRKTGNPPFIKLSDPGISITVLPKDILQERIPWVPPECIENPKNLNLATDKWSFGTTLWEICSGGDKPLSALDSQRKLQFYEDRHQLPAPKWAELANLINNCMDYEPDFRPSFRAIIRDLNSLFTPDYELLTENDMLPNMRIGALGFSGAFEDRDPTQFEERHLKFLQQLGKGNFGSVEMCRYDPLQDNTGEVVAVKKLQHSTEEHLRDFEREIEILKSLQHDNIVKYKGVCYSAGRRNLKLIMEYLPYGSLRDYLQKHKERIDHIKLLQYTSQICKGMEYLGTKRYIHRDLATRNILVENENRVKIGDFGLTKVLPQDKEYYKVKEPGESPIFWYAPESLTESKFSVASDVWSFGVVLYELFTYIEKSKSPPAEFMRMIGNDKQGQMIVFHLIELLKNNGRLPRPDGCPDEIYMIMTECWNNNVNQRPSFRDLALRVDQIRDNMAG
T1 sequence (P23458 whole entry): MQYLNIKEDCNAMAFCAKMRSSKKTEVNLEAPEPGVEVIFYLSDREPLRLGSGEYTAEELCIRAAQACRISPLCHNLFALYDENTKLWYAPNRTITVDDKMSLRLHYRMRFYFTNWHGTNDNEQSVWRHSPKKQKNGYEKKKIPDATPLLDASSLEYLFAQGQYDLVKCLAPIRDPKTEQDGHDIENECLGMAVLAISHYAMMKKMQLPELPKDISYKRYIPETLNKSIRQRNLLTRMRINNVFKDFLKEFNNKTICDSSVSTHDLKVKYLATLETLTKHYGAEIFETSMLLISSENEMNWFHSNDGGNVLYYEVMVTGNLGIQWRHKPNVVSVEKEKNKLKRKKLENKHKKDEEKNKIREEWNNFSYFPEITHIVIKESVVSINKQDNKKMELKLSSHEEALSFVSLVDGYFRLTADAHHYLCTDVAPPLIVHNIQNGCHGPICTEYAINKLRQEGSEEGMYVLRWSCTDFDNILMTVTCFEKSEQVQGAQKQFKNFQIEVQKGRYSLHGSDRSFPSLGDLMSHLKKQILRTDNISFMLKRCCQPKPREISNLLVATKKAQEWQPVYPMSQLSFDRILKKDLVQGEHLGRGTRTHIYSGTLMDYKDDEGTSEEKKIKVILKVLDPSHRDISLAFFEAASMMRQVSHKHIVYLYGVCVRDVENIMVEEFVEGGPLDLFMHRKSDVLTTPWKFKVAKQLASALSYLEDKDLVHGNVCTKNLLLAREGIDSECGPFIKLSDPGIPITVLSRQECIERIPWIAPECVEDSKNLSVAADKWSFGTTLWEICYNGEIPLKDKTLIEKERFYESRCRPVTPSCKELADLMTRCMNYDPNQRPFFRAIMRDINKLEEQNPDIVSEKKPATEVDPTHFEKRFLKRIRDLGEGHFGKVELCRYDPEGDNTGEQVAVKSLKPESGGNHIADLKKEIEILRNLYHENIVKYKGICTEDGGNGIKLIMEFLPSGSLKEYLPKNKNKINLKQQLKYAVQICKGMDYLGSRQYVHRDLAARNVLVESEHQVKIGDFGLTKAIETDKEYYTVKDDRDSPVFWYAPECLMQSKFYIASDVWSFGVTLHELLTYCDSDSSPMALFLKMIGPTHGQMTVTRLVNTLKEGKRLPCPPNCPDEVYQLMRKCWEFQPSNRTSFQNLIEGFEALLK

Compound	inhibition at 1 µM (Human JAK1) [%]	JAK1/JAK2 (Human JAK1)	inhibition at 1 µM (Human JAK2) [%]	inhibition at 1 µM (Human JAK3) [%]	inhibition at 1 µM (Human TYK2; compound at 1 uM) [%]	also measured
CN(c1ncnc2[nH]ccc12)[C@H]1CN(C(=O)CC#N)CC1(C)C [Example 43, (R)-3-(3,3-dimethyl-4-(methyl(7H-pyrrolo[2,3-d]pyrimidine-4-yl)amino)pyrrolidine-1-yl)-3-oxopropanenitrile]	86	4.53	19	36	38	
N#CCC(=O)N1CCC(Oc2ncnc3[nH]ccc23)CC1 [Example 45, 3-(4-((7H-pyrrolo[2,3-d]pyrimidine-4-yl)oxy)piperidine-1-yl)-3-oxopropanenitrile]	35	7.00	5	14	10	
N#CCC(=O)N1CCCC(COc2ncnc3[nH]ccc23)C1 (stereo not shown) [Example 47, 3-(3-(((7H-pyrrolo[2,3-d]pyrimidine-4-yl)oxy)methyl)piperidine-1-yl)-3-oxopropanenitrile]	30	3.00	10	16	20	
N#CCC(=O)N1C[C@@H]2CCCN(c3ncnc4[nH]ccc34)[C@@H]2C1 [Example 50, 3-((4aS,7aS)-1-(7H-pyrrolo[2,3-d]pyrimidine-4-yl)octahydro-6H-pyrrolo[3,4-b]pyridine-6-yl)-3-oxopropanenitrile]	14	∞	-10	1	6	
CN(c1ncnc2[nH]ccc12)[C@@H]1CCN(C(=O)CC#N)C1.Cl [Example 51, (R)-3-(3-(methyl(7H-pyrrolo[2,3-d]pyrimidine-4-yl)amino)pyrrolidine-1-yl)-3-oxopropanenitrile hydrochloride]						AUC(0-t) ([1]; intravenous injection): 18900 ng·h/mL; Cmax ([1]; intravenous injection): 15500 ng/mL; half-life ([1]; intravenous injection): 1.97 h; AUC(0-t) ([1]; oral administration): 13100 ng·h/mL; Cmax ([1]; oral administration): 4530 ng/mL; Tmax ([1]; oral administration): 0.5 h; bioavailability ([1]; oral administration): 69.1%; half-life ([1]; oral administration): 2.78 h
CC1CCN(C(=O)CC#N)CC1N(C)c1ncnc2[nH]ccc12 (stereo not shown) [tofacitinib citrate, 3-{4-methyl-3-[methyl-(7H-pyrrolo[2,3-d]pyrimidine-4-yl)-amino]-piperidine-1-yl}-3-oxo-propionitrile]						inhibition at 1 µM (Human TYK2): 100%; AUC0→t ([2]; intravenous injection, 5 mg/kg): 3180 ng·h/mL; t1/2 ([2]; intravenous injection, 5 mg/kg): 2.8 h; AUC0→t ([2]; oral administration, 10 mg/kg): 2750 ng·h/mL; Cmax ([2]; oral administration, 10 mg/kg): 2400 ng/mL; bioavailability ([2]; oral administration, 10 mg/kg): 43.3%; t1/2 ([2]; oral administration, 10 mg/kg): 2.0 h

Second part, led by results:

inhibition at 1 µM (Human JAK1) [%]	JAK1/JAK2 (Human JAK1)	inhibition at 1 µM (Human JAK2) [%]	inhibition at 1 µM (Human JAK3) [%]	inhibition at 1 µM (Human TYK2; compound at 1 uM) [%]	Compound	also measured
95	1.20	79	89	86	C[C@@H]1CCN(S(=O)(=O)c2cccc(C#N)c2)C[C@@H]1N(C)c1ncnc2[nH]ccc12 [Example 42, 3-(((3R,4R)-4-methyl-3-(methyl(7H-pyrrolo[2,3-d]pyrimidine-4-yl)amino)piperidine-1-yl)sulfonyl)benzonitrile]	
26	∞	-8	1	-1	CN(c1ncnc2[nH]ccc12)[C@@H]1CN(C(=O)CC#N)CC1(C)C [Example 44, (S)-3-(3,3-dimethyl-4-(methyl(7H-pyrrolo[2,3-d]pyrimidine-4-yl)amino)pyrrolidine-1-yl)-3-oxopropanenitrile]	
25	1.47	17	19	7	N#Cc1cccc(S(=O)(=O)N2CCCC(COc3ncnc4[nH]ccc34)C2)c1 (stereo not shown) [Example 48, 3-((3-(((7H-pyrrolo[2,3-d]pyrimidine-4-yl)oxy)methyl)piperidine-1-yl)sulfonyl)benzonitrile]	
54	∞	-7	1	21	N#CCC(=O)N1C[C@H]2CCCN(c3ncnc4[nH]ccc34)[C@H]2C1 [Example 49, 3-((4aR,7aR)-1-(7H-pyrrolo[2,3-d]pyrimidine-4-yl)octahydro-6H-pyrrolo[3,4-b]pyridine-6-yl)-3-oxopropanenitrile]	
